Values quoted from earlier work in patent US20160271257A1, “Low Molecular Weight Immune-Modulators As Adjuvants for Specific Immunotherapy” (PLS-DESIGN GMBH, priority 2013, published 2016).
≈ marks a conversion by molar mass, not a printed value. Entries after “also recorded” stand apart in the source; their conditions may differ. Read-outs that look alike come from different tables or passages of the source. Ends that are not written are not given here.

Experiments:
[1] = 10 ng with 100 μg OVA
[2] = individuals not adhering to dietary calcium restriction
[3] = mouse, in vivo
[4] = i.p. 5 μg/kg every 2 days
[5] = in vivo
C3 [6] = settings: sera from cynomolgus monkeys; read-out: IC50 of haemolytic activity
[7] = system: C3 proteins from lower mammalian species, C4 and C5
C3 [8] = settings: 10 mg/kg i.v. bolus then 60 μg/kg/min infusion
[9] = 600 mg to 1000 mg three times daily, 4 weeks
[10] = system: isolated rat cardiomyocytes; settings: for glutathione repletion and unmasking of TNFR2-mediated effects (reproducing in vivo NAC treatment): incubation 2-3 hours, 50 μmol/L GSM, 50 μmol/L NAC or 10 mmol/L GSH; for protection against the deleterious effects of TNF-alpha on contraction: preincubation 2-3 hours, exogenously added, 50 μM GSM
[11] = oral 1800 mg/day added to standard therapy
[12] = in most of the subjects
[13] = 8 days
[14] = 3-day NAC 120 mg/kg/day, 2-month post-myocardial infarction rats
[15] = system: TNFR1-mediated activation of NF-kappa B
[16] = not given; remark: listed apart in the source
[17] = not given; remark: listed apart in the source
[18] = in vivo; remark: listed apart in the source
[19] = not given; remark: listed apart in the source
[20] = not given; remark: listed apart in the source
[21] = topical pretreatment
[22] = for time detectable in serum by HPLC: rats
[23] = topical, used clinically for years
[24] = not given; remark: listed apart in the source
[25] = six months, budesonide 800 μg/d and cholecalciferol 500 IU
C3aR = molecular target: T1, C3aR (Homo sapiens, UniProt Q16581); settings: human neutrophils; read-out: IC50 of inhibition of C3a-induced calcium mobilization
T1 sequence (Q16581 1-482): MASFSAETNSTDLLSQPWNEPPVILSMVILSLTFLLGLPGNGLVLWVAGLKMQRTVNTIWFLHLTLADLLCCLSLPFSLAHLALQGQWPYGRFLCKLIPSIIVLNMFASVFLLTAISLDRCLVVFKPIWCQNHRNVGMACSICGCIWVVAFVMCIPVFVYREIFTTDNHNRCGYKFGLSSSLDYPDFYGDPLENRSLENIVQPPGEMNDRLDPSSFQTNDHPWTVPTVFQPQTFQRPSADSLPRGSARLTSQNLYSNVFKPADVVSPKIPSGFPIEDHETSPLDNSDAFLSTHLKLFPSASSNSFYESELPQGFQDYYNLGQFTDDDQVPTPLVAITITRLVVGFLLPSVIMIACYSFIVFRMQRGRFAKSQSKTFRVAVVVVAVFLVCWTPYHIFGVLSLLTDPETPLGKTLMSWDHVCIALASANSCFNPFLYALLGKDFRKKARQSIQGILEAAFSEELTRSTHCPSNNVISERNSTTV

[26] = not given; remark: listed apart in the source
CD3 = molecular target: T2, CD3 (Homo sapiens, UniProt P07766); settings: in vivo
T2 construct: endogenous in cells; host or cells: T cells of type 1 diabetes patients (clinical studies reported in the literature)

NF-kappa B translocation = settings: read-out: concentration for 50% inhibition of NF-kappa B translocation
[27] = 2 μg/day, 3 months
[28] = oral 4,000-40,000 IU/day, 28 weeks

T2 sequence (P07766 23-207): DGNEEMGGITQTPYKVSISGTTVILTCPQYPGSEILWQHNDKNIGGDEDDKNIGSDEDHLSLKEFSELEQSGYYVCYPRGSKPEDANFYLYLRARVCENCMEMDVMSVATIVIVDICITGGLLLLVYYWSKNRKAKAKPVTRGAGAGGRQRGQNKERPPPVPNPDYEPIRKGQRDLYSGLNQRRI
T2 sequence (P04234 22-171 partner): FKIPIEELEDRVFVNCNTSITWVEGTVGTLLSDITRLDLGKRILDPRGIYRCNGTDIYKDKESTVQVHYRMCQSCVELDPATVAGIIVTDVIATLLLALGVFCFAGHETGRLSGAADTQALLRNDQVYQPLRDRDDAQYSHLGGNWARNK
T2 sequence (P09693 23-182 partner): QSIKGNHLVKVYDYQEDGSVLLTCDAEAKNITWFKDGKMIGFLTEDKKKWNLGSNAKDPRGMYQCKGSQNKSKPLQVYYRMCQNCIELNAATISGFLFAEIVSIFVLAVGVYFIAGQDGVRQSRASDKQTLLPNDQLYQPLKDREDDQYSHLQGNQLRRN
T2 sequence (P20963 22-164 partner): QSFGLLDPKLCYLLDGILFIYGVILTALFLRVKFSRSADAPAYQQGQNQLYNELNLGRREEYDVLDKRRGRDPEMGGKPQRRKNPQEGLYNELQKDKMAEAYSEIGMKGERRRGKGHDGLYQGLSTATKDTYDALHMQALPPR

C=C1/C(=C\C=C2/CCC[C@]3(C)[C@@H]([C@H](C)CCCC(C)(C)O)CC[C@@H]23)C[C@@H](O)C[C@@H]1O [1,25-(OH)2D3, 1α,25-dihydroxyvitamin D3]
airway hyper-responsiveness [1]: significantly inhibited | serum OVA-specific IgE levels [1]: potentiated the reduction; also recorded: significant reduction | progression of arthritis and hypercalcemia (diet, 20 ng/mouse/day): effective in inhibiting the progression of arthritis without producing hypercalcemia | symptoms of Lyme arthritis (B. burgdorferi infection) (dietary supplementation): minimized or prevented | symptoms of collagen-induced arthritis (dietary supplementation): prevented | adverse effect reported [2]: hypercalcaemia; also recorded: hypercalcemia | development / onset of diabetes [3]: prevented | treated mice in which appearance of paralysis was prevented [4]: 70%

Ac-Phe-[Orn-Pro-DCha-Trp-Arg] [PMX53]
half-life [5]: 1.17 h

R121D/Y124D: human IL-4 double mutant antagonizing IL-4 and IL-13
cutaneous wheal response and circulating allergen-specific IgE (IL-4 and IL-13; subcutaneous, 6 weeks or more): reduced | allergen-induced airways hyper-responsiveness (IL-4 and IL-13; subcutaneously or via nebulisation): protect

CC[C@H](C)[C@H](N)C(=O)N[C@H]1CSSC[C@@H](C(=O)N[C@H](C(N)=O)[C@@H](C)O)NC(=O)[C@H](CCCN=C(N)N)NC(=O)[C@H](Cc2cnc[nH]2)NC(=O)[C@H](Cc2cnc[nH]2)NC(=O)CNC(=O)[C@H](Cc2c[nH]c3ccccc23)NC(=O)[C@H](CC(=O)O)NC(=O)[C@H](CCC(N)=O)NC(=O)[C@H](C(C)C)NC(=O)[C@H](C(C)C)NC1=O [compstatin]
IC50 (C3 [6]): […] | binding to C3 from lower mammalian species or to C4 and C5 [7]: does not bind | effect in sepsis model (C3 [8]): decrease the procoagulant response and to confer organ protection

CC(=O)N[C@@H](CS)C(=O)O [NAC, N-acetyl-L-cysteine]
safety and effect on blood neutrophil GSH, airway neutrophil count and elastase activity [9]: safe and effective | cytotoxicity to resting T cells (peripheral blood T cells; 1 mM to 20 mM, 3 days, seven donors): nontoxic | effect on T cell function and growth (peripheral blood T cells; 10 mM): effective enhancer of T cell function and enhancer of growth | glutathione repletion and unmasking of TNFR2-mediated effects (reproducing in vivo NAC treatment) [10]: could not reproduce | protection against the deleterious effects of TNF-alpha on contraction [10]: not protected | primary end points including vital capacity [11]: better | highest non-toxic dose [12]: 800 mg/m^2/day | decrease of ovalbumin-specific IgE and IgG1 ([13]; 0.5 g/liter in drinking water): ~30% | decrease of ovalbumin-specific IgE and IgG1 responses ([13]; 1.0 g/liter in drinking water): more than 70% | GSH content of the left ventricle, % of control level in sham rats [14]: 75%

O=C([O-])c1ccccc1O.[Na+] [sodium salicylate]
dose required for inhibition of TNFR1-mediated activation of NF-kappa B [15]: 10 to 20 mM

vitamin D
relative risk of type 1 diabetes over the subsequent 30 years ([16]; doses of exactly 50 μg/day): 0.22 | relative risk of type 1 diabetes over the subsequent 30 years ([16]; regular, doses of over 50 μg/day (2000 IU/d)): 0.14 | relative risk of developing type 1 diabetes ([16]; supplements given irregularly): 0.16 | relative risk of developing type 1 diabetes ([16]; supplements given regularly): 0.12

N[C@@H](CCC(=O)N[C@@H](CS)C(=O)NCC(=O)O)C(=O)O [GSH, glutathione]
glutathione repletion and unmasking of TNFR2-mediated effects (reproducing in vivo NAC treatment) [10]: could not reproduce

TFGLQLELT [nonapeptide 180-188]
rats showing clinical symptoms of adjuvant arthritis during pretreatment period ([17]; i.p. 100 μg in FIA): none of the rats | rats completely protected against subsequently induced adjuvant arthritis ([17]; three times 100 μg in FIA): 11 out of 16

O=C(O)c1ccccc1O [salicylate]
levels at which tinnitus may occasionally occur [18]: ≥ 95 µg/mL

C=C1CC[C@H](O)C/C1=C/C=C1\CCC[C@]2(C)[C@@H]([C@H](C)CCCC(C)(C)O)CC[C@@H]12 [25-OH-D3, 25-hydroxyvitamin D3]
serum levels of 25-OH-D3 to be kept below to avoid toxicity ([19]; based on experiments in the rat): below 250 ng/ml | serum levels of 25-OH-D3 at which toxicity occurs ([19]; rat, in vivo): ≥ 0.5 µg/mL | adverse effects ([20]; 1,000 to 40,000 IU/day): no adverse effects | disease progression and relapse activity [20, 28]: not affected | number of new lesions assessed by MRI [20, 28]: significant decrease

C=C1/C(=C\C=C2/CCC[C@]3(C)[C@@H]([C@H](C)/C=C/[C@@H](O)C4CC4)CC[C@@H]23)C[C@@H](O)C[C@@H]1O [calcipotriol]
CD4+CD25+ Tregs [21]: induced | antigen-specific CD8+ T cell priming [21]: abolished | time detectable in serum by HPLC ([22]; i.v. 10 μg/kg): up to 5 min | time detectable in serum by HPLC ([22]; i.v. 50 μg/kg): up to 10 min | half-life in circulation ([22]; rat, in vivo): short; also recorded: very short | rate of clearance, times higher than for 1,25-(OH)2D3 ([22]; rat, in vivo): approximately 140 times | systemic toxicity [23]: without systemic toxicity | times less effect on calcium metabolism compared to 1,25-(OH)2D3 (calcium metabolism; activation of calcium absorption and bone calcium mobilization): 100-200 times | effects of the metabolites, times weaker than those of the parent compound (calcium metabolism; in vivo): 100 times | solubility in ethanol [24]: approx. 50 mg/ml | solubility in a 1:5 solution of ethanol:PBS, pH 7.2 ([24]; pH 7.2): approx. 0.15 mg/ml

CSC[C@H](NC(=O)CC[C@H](N)C(=O)O)C(=O)NCC(=O)O [GSM, S-methylglutathione]
glutathione repletion and unmasking of TNFR2-mediated effects (reproducing in vivo NAC treatment) [10]: achieved | protection against the deleterious effects of TNF-alpha on contraction [10]: protected | solubility in water [24]: 8.1 mM (≈ 2600 µg/mL)

O=C(O)c1ccccc1O [salicylic acid]
solubility in ethanol/water (10:90 vol) [24]: 21 mM (≈ 2900 µg/mL) | solubility in ethanol/water (20:80 vol) [24]: 35 mM (≈ 4830 µg/mL) | solubility in ethanol/water (30:70 vol) [24]: 81 mM (≈ 11200 µg/mL) | solubility in ethanol/water (40:60 vol) [24]: 277 mM (≈ 38300 µg/mL) | solubility in ethanol/water (50:50 vol) [24]: 526 mM (≈ 72700 µg/mL) | solubility in water ([24]; salicylic acid): 14 mM (≈ 1930 µg/mL)

C=C1CC[C@H](O)C/C1=C/C=C1\CCC[C@]2(C)[C@@H]([C@H](C)CCCC(C)C)CC[C@@H]12 [cholecalciferol]
children who experienced asthma exacerbation [25]: 17%

N=C(N)NCCCC(NC(=O)COCC(c1ccccc1)c1ccccc1)C(=O)O [SB290157, N^2-[(2,2-dipheneylethoxy)acetyl]-L-arginine]
IC50 (C3aR): 0.028 µM | in vivo half-life [26]: short | solubility in DMSO [24]: 5 mg/mL (≈ 12.1 mM) | solubility in saline solution containing 5% ethanol and 10% Cremaphor-EL [24]: at least 10 mg/ml

Otelixizumab: Fc-mutated anti CD3 mAb
clinical efficacy in phase III studies (CD3): failed to show clinical efficacy

Teplizumab: humanized anti CD3 mAb mutated to prevent binding to Fc receptors
clinical efficacy in phase III studies (CD3): failed to show clinical efficacy

CC(=O)Oc1ccccc1C(=O)O [ASA, acetylsalicylic acid]
IC50 (NF-kappa B translocation): ~3000 µM

C=C1/C(=C\C=C2/CCC[C@]3(C)[C@@H]([C@H](C)CCCC(C)C)CC[C@@H]23)C[C@@H](O)C[C@@H]1O [alfacalcidiol]
patients going into remission [27]: 45% | patients with improvement of disease activity [27]: 89%
